In patent publication US12029738B2, “Antiproliferative compounds and methods of use thereof” (Celgene Corporation, priority 2017, dated 2024):
Entries after “also recorded” stand apart in the source; their conditions may differ. Where two headings read alike, the source gives them in different places.

Tests used:
[1] = molecular target: T1, CYP2B6 (Homo sapiens, UniProt P20813); experiment: CYP inhibition in pooled human liver microsomes; assay type: in vitro ADME
T1 construct: from tissue; host or cells: pooled human liver microsomes
T1 sequence (P20813 1-491): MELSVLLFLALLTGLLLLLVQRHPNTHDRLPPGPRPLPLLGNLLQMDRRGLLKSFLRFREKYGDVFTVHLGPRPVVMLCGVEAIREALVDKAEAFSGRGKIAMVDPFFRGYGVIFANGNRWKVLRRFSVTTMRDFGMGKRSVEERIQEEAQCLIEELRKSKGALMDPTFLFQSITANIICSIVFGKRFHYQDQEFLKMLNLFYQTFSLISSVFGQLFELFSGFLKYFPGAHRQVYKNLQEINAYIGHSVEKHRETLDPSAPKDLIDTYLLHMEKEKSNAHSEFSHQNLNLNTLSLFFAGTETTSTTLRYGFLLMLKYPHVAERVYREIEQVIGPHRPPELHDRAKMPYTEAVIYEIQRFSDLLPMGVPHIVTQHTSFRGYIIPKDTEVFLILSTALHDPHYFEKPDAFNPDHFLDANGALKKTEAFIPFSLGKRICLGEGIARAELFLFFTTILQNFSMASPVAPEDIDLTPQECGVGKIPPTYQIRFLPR
Procedure: (§1) Methods. […] In addition, the compounds were evaluated for their potential to act as a time-dependent inhibitors at the same concentrations mentioned above. […] In addition to appropriate vehicle controls, known direct inhibitors and time-dependent inhibitors of CYP isoforms were included as positive controls. Following the incubation, concentrations of probe substrate metabolites were quantified using established LC/MS/MS methods. The extent of inhibition was expressed as the percentage of control activity.

[2] = molecular target: T2, CYP2C19 (Homo sapiens, UniProt P33261); experiment: CYP inhibition in pooled human liver microsomes; assay type: in vitro ADME
T2 construct: from tissue; host or cells: pooled human liver microsomes
T2 sequence (P33261 whole entry): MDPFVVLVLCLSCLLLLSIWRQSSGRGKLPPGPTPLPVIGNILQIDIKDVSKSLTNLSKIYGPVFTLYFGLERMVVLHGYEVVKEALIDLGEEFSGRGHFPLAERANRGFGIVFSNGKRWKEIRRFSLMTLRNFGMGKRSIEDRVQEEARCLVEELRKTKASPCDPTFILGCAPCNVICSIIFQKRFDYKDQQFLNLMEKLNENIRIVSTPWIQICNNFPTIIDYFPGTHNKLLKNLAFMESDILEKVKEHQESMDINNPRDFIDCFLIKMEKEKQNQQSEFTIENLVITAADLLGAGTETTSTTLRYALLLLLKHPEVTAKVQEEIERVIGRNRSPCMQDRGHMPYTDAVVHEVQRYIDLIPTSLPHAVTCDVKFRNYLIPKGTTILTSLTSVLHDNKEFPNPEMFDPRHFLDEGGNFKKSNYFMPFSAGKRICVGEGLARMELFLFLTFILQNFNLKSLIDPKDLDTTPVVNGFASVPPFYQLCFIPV
Procedure: as §1

[3] = molecular target: T3, CYP2C9 (Homo sapiens, UniProt P11712); experiment: CYP inhibition in pooled human liver microsomes; assay type: in vitro ADME
T3 construct: from tissue; host or cells: pooled human liver microsomes
T3 sequence (P11712 whole entry): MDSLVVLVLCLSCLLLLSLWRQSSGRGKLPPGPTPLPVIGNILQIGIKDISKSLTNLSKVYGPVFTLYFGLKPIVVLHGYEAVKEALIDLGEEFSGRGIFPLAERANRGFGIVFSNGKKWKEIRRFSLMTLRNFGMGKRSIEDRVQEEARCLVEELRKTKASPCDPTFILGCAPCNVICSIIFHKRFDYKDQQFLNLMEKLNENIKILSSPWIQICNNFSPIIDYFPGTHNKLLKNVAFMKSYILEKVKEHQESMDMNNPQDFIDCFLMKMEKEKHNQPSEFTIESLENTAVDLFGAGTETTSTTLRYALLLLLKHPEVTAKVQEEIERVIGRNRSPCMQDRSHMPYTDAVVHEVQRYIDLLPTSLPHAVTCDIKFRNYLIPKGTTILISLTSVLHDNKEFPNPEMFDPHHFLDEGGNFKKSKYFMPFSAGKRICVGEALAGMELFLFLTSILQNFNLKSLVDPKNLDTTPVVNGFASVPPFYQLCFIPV
Procedure: as §1

[4] = test system: CYP3A4/5; experiment: CYP inhibition in pooled human liver microsomes; assay type: in vitro ADME
Procedure: as §1

[5] = test system: ARH-77; experiment: Flow cytometry proliferation/apoptosis assay (120 h); assay type: cell-based, human; conditions: for IC50: Homo sapiens, read-out: Antiproliferative Activity (Flow Cytometry) IC50; for induced apoptosis AUC (area under the dose response curve): scale 0-10000
Procedure: (§2) Methods. […] Using 5 mM stocks, compounds were pre-spotted into the appropriate wells of 96-well plates using a Hewlett-Packard D300 Digital Dispenser. Cells were added to 96-well plates using a Multidrop Combi Reagent Dispenser. After 5 days of treatment, flow cytometric analysis was used to determine the number of cells that were alive, dead, or apoptotic. After 5 days of treatment, cells were incubated with annexin V to stain exposed phosphatidylserine, an apoptotic cell-surface marker, and the vital dye 7-AAD, which is excluded from cells with intact cell membranes, and analyzed by flow cytometry (Attune®, Thermo Fisher). Analysis was then performed to determine the number of live cells (annexin V and 7-AAD double negative staining cells) and the percentage of apoptotic cells (annexin V positive cells) for each condition, relative to the DMSO control treated, was calculated. All described values were normalized to DMSO-only treated cells. All proliferation and apoptosis induction curves were processed and graphed as percent of control using XLFit (IDBS, Alameda, CA) and GraphPad Prism 7.03 (GraphPad Software, La Jolla, CA). The live cell count for every concentration was normalized to the DMSO control (considered as 100%) in Microsoft Excel to generate the proliferation curves. […] Similarly, for apoptosis analysis, the percentage of drug-induced apoptosis was calculated for all doses by combining both “early” (annexin V positive and 7-AAD negative) and “late” apoptosis (annexin V and 7-AAD positive) values and subtracting background values (cell treated with vehicle control DMSO). The AUC values for apoptosis curves were calculated by performing area under curve analysis on GraphPad Prism 7.03. The area under the dose-response curve (AUC) was calculated since it integrates potency and efficacy of the drugs to represent apoptosis into a single parameter. The IC50 values for Compound 2 and pomalidomide in the flow cytometry assays are presented Table 9.
(§3) The apoptosis induction effect of Compound 2 was assessed using flow cytometry after 120 h of treatment and compared with pomalidomide treatment. […] Each data point represents 2 independent experiments with at least two samples in each experiment. (Table 10).

[6] = test system: CAG; experiment: as above; assay type: cell-based, human; conditions: for IC50: Homo sapiens, read-out: Antiproliferative Activity (Flow Cytometry) IC50; for induced apoptosis AUC (area under the dose response curve): scale 0-10000
Procedure: as §2, §3

[7] = test system: IM-9; experiment: as above; assay type: cell-based, human; conditions: for IC50: Homo sapiens, read-out: Antiproliferative Activity (Flow Cytometry) IC50; for induced apoptosis AUC (area under the dose response curve): scale 0-10000
Procedure: as §2, §3

[8] = test system: KMS-11; experiment: as above; assay type: cell-based, human; conditions: for IC50: Homo sapiens, read-out: Antiproliferative Activity (Flow Cytometry) IC50; for induced apoptosis AUC (area under the dose response curve): scale 0-10000
Procedure: as §2, §3

[9] = test system: L363; experiment: as above; assay type: cell-based, human; conditions: for IC50: Homo sapiens, L-363, read-out: Antiproliferative Activity (Flow Cytometry) IC50; for induced apoptosis AUC (area under the dose response curve): scale 0-10000
Procedure: as §2, §3

[10] = test system: NCI-H929-1051; experiment: as above; assay type: cell-based, human; conditions: for induced apoptosis AUC (area under the dose response curve): H929-1051, scale 0-10000; for IC50: Homo sapiens, NCI-H929-1051, read-out: Antiproliferative Activity (Flow Cytometry) IC50
Procedure: as §2, §3

[11] = test system: OPM2-P10; experiment: as above; assay type: cell-based, human; conditions: for IC50: Homo sapiens, read-out: Antiproliferative Activity (Flow Cytometry) IC50; for induced apoptosis AUC (area under the dose response curve): scale 0-10000
Procedure: as §2, §3

[12] = test system: RPMI-8226; experiment: as above; assay type: cell-based, human; conditions: for IC50: Homo sapiens, read-out: Antiproliferative Activity (Flow Cytometry) IC50; for induced apoptosis AUC (area under the dose response curve): scale 0-10000
Procedure: as §2, §3

[13] = test system: SK-MM-2; experiment: as above; assay type: cell-based, human; conditions: for IC50: Homo sapiens, SK-MM-2, read-out: Antiproliferative Activity (Flow Cytometry) IC50; for induced apoptosis AUC (area under the dose response curve): SKMM-2, scale 0-10000
Procedure: as §2, §3

[14] = test system: U266; experiment: as above; assay type: cell-based, human; conditions: for IC50: Homo sapiens, U-266, read-out: Antiproliferative Activity (Flow Cytometry) IC50; for induced apoptosis AUC (area under the dose response curve): scale 0-10000
Procedure: as §2, §3

[15] = up to 30 μM, 30 minute preincubation with or without NADPH
[16] = up to / at 30 μM, human liver microsomes

| SMILES | IC50 [5] [µM] | induced apoptosis AUC (area under the dose response curve) [5] | IC50 [6] [nM] | induced apoptosis AUC (area under the dose response curve) [6] | IC50 [7] [µM] | induced apoptosis AUC (area under the dose response curve) [7] | IC50 [8] [nM] | induced apoptosis AUC (area under the dose response curve) [8] | IC50 [9] [nM] | induced apoptosis AUC (area under the dose response curve) [9] | induced apoptosis AUC (area under the dose response curve) [10] | IC50 [10] [nM] | IC50 [11] [nM] | induced apoptosis AUC (area under the dose response curve) [11] | IC50 [12] [nM] | induced apoptosis AUC (area under the dose response curve) [12] | IC50 [13] [nM] | induced apoptosis AUC (area under the dose response curve) [13] | IC50 [14] [nM] | induced apoptosis AUC (area under the dose response curve) [14] | also measured |
| --- | --- | --- | --- | --- | --- | --- | --- | --- | --- | --- | --- | --- | --- | --- | --- | --- | --- | --- | --- | --- | --- |
| N#Cc1ccc(N2CCN(Cc3ccc(COc4cccc5c4CN([C@H]4CCC(=O)NC4=O)C5=O)cc3)CC2)c(F)c1 [Compound 2, (S)-4-(4-(4-(((2-(2,6-dioxopiperidin-3-yl)-1-oxoisoindolin-4-yl)oxy)methyl)benzyl)piperazin-1-yl)-3-fluorobenzonitrile] | > 10 | 709 | 0.12 | 5804 | 5.57 | 323.9 | 1.41 | 1270 | 0.16 | 347 | 3968 | 0.45 | 1.81 | 1768 | 0.75 | 3245 | 0.82 | 3204 | 0.19 | 927.8 | inhibition at 30 µM ([1]; human, microsomes): ≤ 30%; IC50 [2]: > 30 µM; inhibition at 30 µM ([2]; human, microsomes): 41%; inhibition at 30 µM ([3]; human, microsomes): ≤ 30%; IC50 ([4]; human, microsomes): > 30000 nM; inhibition at 30 µM ([4]; human, microsomes, direct inhibition of CYP3A4/5 (testosterone)): 46%; inhibition at 30 µM ([4]; human, microsomes, inhibition of CYP3A4/5 (testosterone) activity after preincubation with NADPH): 59%; inhibition at 30 µM ([4]; human, microsomes, inhibition of CYP3A4/5 (testosterone) activity after preincubation without NADPH): 23% |
| O=C1CC[C@H](N2Cc3c(OCc4ccc(CN5CCN(c6ccc(F)cc6F)CC5)cc4)cccc3C2=O)C(=O)N1 [Compound B] | – | – | – | – | – | – | – | – | – | – | – | – | – | – | – | – | – | – | – | – | time-dependent inhibition of CYP2B6 [1, 15]: little to no time-dependent inhibition; also recorded: not a time-dependent inhibitor; direct inhibition of CYP2B6 [1, 16]: 59%; direct inhibition of CYP2C19 ([2]; at 30 μM, human liver microsomes): 45%; time-dependent inhibition of CYP2C19 [2, 15]: little to no time-dependent inhibition; also recorded: not a time-dependent inhibitor; time-dependent inhibition of CYP2C9 [3, 15]: little to no time-dependent inhibition; also recorded: not a time-dependent inhibitor; direct inhibition of CYP2C9 [3, 16]: 38%; IC50 ([4]; 30 minute preincubation with NADPH, substrate midazolam, read-out: shifted IC50 value (with NADPH) CYP3A4/5, midazolam): 2230 nM; IC50 ([4]; 30 minute preincubation with NADPH, substrate testosterone, read-out: shifted IC50 value (with NADPH) CYP3A4/5, testosterone): 1930 nM; IC50 ([4]; substrate testosterone, read-out: direct inhibition IC50 CYP3A4/5 (testosterone)): 2920 nM; time-dependent inhibition of CYP3A4/5 (overall finding) ([4]; up to 30 μM, 30 minute preincubation): inhibited CYP3A4/5 in a time-dependent manner; also recorded: time-dependent inhibitor of CYP3A4/5; direct inhibition of CYP3A4/5 (midazolam) ([4]; up to 30 μM, substrate midazolam): up to 30% |
| Nc1cccc2c1C(=O)N(C1CCC(=O)NC1=O)C2=O (centres unmarked) [Pomalidomide, pomalidomide] | > 10 | 28.16 | 1080 | 1561 | > 10 | 25.4 | 5290 | 234.4 | > 10000 | 293 | 423 | 1950 | > 10000 | 108.7 | > 10000 | 1369 | > 10000 | 1033 | 381 | 373 | – |
